The values below are quoted from earlier work in patent publication US20090306944A1, “DEVICE AND METHOD FOR CALCULATING AND SUPPLYING A DRUG DOSE” (BAYER TECHNOLOGY SERVICES GMBH, priority 2006, published 2009).

Where two headings read alike, the source gives them in different places.

For series [1] the following is noted: for main binding protein in the plasma: adult.
Another series relates to CYP3A. The conditions noted are these: in vivo.
The conditions of series [2]: intravenously administered.
The next series has as its target T1, CYP1A2 (Homo sapiens, UniProt P05177).
T1 sequence (P05177 1-516): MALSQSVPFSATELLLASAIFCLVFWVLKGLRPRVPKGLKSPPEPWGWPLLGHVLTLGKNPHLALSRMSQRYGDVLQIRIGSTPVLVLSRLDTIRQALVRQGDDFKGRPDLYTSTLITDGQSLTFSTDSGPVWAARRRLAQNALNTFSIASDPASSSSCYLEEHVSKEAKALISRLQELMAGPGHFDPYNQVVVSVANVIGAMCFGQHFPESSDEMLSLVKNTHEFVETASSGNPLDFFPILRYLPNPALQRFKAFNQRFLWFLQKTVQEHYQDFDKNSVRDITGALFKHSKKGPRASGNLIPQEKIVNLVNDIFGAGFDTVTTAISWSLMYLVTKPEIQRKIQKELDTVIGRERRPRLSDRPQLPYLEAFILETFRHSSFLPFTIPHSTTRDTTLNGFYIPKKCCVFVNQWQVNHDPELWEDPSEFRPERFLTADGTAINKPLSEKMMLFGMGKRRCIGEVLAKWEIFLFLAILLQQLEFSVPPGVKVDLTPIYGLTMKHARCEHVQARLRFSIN
The conditions noted are these: proportion of overall clearance, reference value in an adult.

A further series addresses CYP2E1 (Homo sapiens, UniProt P05181). The conditions noted are these: proportion of overall clearance, reference value in an adult.
Another series concerns the target UGT1A1 (Homo sapiens, UniProt P22309). The conditions noted are these: proportion of overall clearance, reference value in an adult.
For series [3] the following is noted: proportion of overall clearance, reference value in an adult.
A further series addresses T2, CYP3A4 (Homo sapiens, UniProt P08684).
T2 construct: the metabolizing enzymes in the liver; host or cells: liver enzymes of the adult, in vivo clearance
As to conditions: proportion of overall clearance, reference value in an adult.

For series [4] the following is noted: Measured.
The next series deals with T3, UGT2B7 (Homo sapiens, UniProt P16662).
T3 sequence (P16662 24-529): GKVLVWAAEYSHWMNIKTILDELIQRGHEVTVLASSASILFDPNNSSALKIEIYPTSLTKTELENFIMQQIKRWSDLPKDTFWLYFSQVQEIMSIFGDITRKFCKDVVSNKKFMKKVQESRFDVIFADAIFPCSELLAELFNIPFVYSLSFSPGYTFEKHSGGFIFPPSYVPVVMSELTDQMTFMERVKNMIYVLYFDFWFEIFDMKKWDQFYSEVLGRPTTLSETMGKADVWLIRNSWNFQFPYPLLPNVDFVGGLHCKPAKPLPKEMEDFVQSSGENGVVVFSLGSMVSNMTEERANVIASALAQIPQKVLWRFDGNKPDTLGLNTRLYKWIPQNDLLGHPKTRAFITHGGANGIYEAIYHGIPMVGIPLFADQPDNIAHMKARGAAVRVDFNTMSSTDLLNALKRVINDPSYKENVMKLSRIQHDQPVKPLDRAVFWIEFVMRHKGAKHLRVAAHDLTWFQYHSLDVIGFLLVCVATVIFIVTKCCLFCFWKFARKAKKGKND
As to conditions: proportion of overall clearance, reference value in an adult.

Setting [5] is: proportion of overall clearance, reference value in an adult.
[6] abbreviates: with co-medication with cyclosporin.

Chain of CYP2E1 (P05181 whole entry): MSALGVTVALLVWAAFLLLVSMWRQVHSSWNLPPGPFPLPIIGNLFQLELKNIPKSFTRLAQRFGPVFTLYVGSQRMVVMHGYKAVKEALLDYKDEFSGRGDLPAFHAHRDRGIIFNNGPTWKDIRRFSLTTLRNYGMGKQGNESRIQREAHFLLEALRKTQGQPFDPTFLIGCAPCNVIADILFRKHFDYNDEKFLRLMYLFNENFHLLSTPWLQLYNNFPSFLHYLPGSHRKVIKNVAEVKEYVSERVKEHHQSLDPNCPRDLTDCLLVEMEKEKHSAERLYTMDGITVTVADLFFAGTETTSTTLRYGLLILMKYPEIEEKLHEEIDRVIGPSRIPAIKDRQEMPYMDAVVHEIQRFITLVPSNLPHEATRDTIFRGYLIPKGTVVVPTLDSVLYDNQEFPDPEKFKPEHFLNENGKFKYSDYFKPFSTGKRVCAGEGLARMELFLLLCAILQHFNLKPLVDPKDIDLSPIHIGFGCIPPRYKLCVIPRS
Chain of UGT1A1 (P22309 26-533): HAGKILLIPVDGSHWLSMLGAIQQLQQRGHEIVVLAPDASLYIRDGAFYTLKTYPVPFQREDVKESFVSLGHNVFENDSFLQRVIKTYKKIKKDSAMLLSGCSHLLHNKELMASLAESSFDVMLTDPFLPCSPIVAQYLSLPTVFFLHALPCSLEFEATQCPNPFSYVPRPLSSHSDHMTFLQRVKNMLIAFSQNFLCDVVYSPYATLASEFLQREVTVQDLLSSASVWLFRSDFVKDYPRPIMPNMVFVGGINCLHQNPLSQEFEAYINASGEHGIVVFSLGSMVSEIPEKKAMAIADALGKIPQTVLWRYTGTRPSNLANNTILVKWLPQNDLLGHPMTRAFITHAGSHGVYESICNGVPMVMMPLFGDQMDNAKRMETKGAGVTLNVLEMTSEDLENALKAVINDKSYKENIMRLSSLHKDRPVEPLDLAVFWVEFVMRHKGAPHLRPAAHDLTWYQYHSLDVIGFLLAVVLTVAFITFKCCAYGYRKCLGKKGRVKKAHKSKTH
T2 sequence (P08684 whole entry): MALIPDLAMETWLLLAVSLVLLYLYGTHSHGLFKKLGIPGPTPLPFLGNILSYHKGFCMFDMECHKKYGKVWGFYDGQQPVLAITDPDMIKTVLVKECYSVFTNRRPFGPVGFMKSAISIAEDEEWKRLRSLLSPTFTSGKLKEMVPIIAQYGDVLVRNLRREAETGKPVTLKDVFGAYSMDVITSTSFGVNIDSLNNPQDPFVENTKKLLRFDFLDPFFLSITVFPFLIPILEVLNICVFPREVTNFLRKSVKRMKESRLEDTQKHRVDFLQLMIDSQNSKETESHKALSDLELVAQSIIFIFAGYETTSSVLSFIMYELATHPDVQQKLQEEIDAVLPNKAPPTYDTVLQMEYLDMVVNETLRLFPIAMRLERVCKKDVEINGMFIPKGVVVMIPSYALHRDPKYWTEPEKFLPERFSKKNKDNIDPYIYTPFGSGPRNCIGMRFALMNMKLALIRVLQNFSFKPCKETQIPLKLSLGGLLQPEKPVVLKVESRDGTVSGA

Take Gentamicin: in series [1] (plasma), the “Free fraction in the plasma” value is 95%.
`Cc1ncc2n1-c1ccc(Cl)cc1C(c1ccccc1F)=NC2` [Midazolam]: the “Free fraction in the plasma” value in [1] (plasma) is recorded as 2% (Albumin). Also, in the series with CYP3A, the “Excretion process: CYP3A” value is recorded as “CYP3A (100%)”.
Regarding `O=C(O)c1cn(C2CC2)c2cc(N3CCNCC3)c(F)cc2c1=O` [Ciprofloxacin], the “fraction renally excreted without being changed” value in [2] is “Approximately ⅔”.
Turning to `Cn1c(=O)c2c(ncn2C)n(C)c1=O` [Caffeine], on CYP1A2, the “Excretion process: CYP1A2” value is on record as “CYP1A2 (85%),”. Further, in series [1] (reference value in an adult), the “Free fraction in the plasma” value is listed as 70% (albumin). The “Excretion process: CYP2E1” value on CYP2E1 is listed as “CPY2E1 (13%),”.
On to `C[C@H]1COc2c(N3CCN(C)CC3)c(F)cc3c(=O)c(C(=O)O)cn1c23` [Levofloxacin], for which the “Free fraction in the plasma” value in series [1] (reference value in an adult) was 70% (Albumin). In addition, at UGT1A1, the “Excretion process: UGT1A1” value was “UGT1A1 (10%)”. Moreover, the “Excretion process: Renal” value (in vivo) was “Renal (80%)”. Also, the “Excretion process: Billiary” value in series [3] was “Billiary (10%)”.
On to `CCCN1CCCC[C@H]1C(=O)Nc1c(C)cccc1C` [Ropivacaine], for which, on CYP1A2, the “Excretion process: CYP1A2” value is “CYP1A2 (90%),”. Further, the “main binding protein in the plasma” value in series [1] was “α1-Glycoprotein”. Besides, the “Free fraction in the plasma” value in series [1] (reference value in an adult) is given as 5%. For the same compound, the “Excretion process: CYP3A4” value on CYP3A4 was “CYP3A4 (9%),”. For the same compound, the “Excretion process: Renal” value under setting [5] was “Renal (1%)”.
Regarding `CN[C@@H]1[C@@H](O)[C@@H](O[C@@H]2[C@@H](O)[C@H](O[C@H]3O[C@H](CN)[C@@H](O)[C@H](O)[C@H]3O)[C@@H](N)C[C@H]2NC(=O)[C@@H](O)CN)OC[C@]1(C)O` [Isepamicin], in series [1] (reference value in an adult), the “Free fraction in the plasma” value is recorded as 95%. For the same compound, the “Excretion process: Renal” value under setting [5] was “Renal (100%)”.
Take `CC(=O)Nc1ccc(O)cc1` [Paracetamol]: the “main binding protein in the plasma” value in series [1] is “Albumin”. In addition, in series [1] (reference value in an adult), the “Free fraction in the plasma” value is given as 95%.
`CC(=O)O[C@H]1C(=O)[C@@]2(C)[C@H]([C@H](OC(=O)c3ccccc3)[C@]3(O)C[C@H](OC(=O)[C@H](O)[C@@H](NC(=O)c4ccccc4)c4ccccc4)C(C)=C1C3(C)C)[C@]1(OC(C)=O)CO[C@@H]1C[C@@H]2O` [paclitaxel, Paclitaxel]: in series [4] (setting [6]), the AUC was 1.7 ± 0.9 µM·h, the maximum concentration (Cmax) is 200 ± 100 nM, the “T > 0.1 μM” value is given as 3.7 ± 2.3 h and the “T > 0.5 μM” value is on record as 7.4 ± 4.4 h. In addition, in series [4] (without co-medication), the exposure (AUC) is 0.2 ± 0.1 µM·h, the “T > 0.1 μM” value is listed as 0 h and the “T > 0.5 μM” value was 1.2 ± 0.9 h. In addition, in series [4] (without co-medication, rounded-up value), the Cmax was 100 nM.
`O=C1Nc2ccc(Cl)cc2C(c2ccccc2Cl)=NC1O` (stereo not drawn) [Lorazepam]: the “Excretion process: UGT2B7” value at UGT2B7 was “UGT2B7 (100%)”. Further, the “Free fraction in the plasma” value in [1] (plasma) is on record as 8% (Albumin).
Consider `Cn1c(=O)c2[nH]cnc2n(C)c1=O` [Theophylline], for which the “Excretion process: CYP1A2” value on CYP1A2 is “CYP1A2 (60%),”. Further, the “Excretion process: Renal” value under setting [5] is recorded as “Renal (15%)”. On CYP2E1, the “Excretion process: CYP2E1” value is on record as “CYP2E1 (25%),”.
